Source: PMC7650794, “Pharmacological Modulation of Blood–Brain Barrier Permeability by Kinin Analogs in Normal and Pathologic Conditions” (Pharmaceuticals, 2020)
Non-standard residues stand in square brackets, D forms with d. Residues, ends and D or L forms follow the SMILES beside them. No end group written: not given here. *: point of attachment. X1 = COc1ccc(C[C@@H](CN[C@@H](CCCNC(=N)N)C(=O)O)N*)cc1; Hyp = O=C(O)[C@@H]1C[C@@H](O)CN1; 2Thi = N[C@@H](Cc1cccs1)C(=O)O

Experiments:
human B2R [1] = target: T1, human B2R (Homo sapiens, UniProt P30411); experiment: Radioligand displacement binding assay, [3H]BK, human B2R-HEK293 cells
T1 construct: expressed in transfected cells; host or cells: QBI HEK 293A cells, lentiviral transduction with pCDH-BDKRB2, puromycin selection
T1 sequence (P30411 1-391): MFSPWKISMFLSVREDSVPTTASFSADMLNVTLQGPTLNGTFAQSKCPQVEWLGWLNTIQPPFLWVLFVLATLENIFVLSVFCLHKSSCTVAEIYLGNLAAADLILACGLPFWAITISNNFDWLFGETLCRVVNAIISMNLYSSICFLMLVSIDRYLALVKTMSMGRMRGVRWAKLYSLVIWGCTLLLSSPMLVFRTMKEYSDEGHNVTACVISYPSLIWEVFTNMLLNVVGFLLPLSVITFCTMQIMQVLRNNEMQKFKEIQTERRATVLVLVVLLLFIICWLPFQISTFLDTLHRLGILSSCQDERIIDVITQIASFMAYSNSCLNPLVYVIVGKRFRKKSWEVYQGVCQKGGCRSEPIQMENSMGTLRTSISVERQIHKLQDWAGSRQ
Description: The pCDH-BDKRB2 vector was produced from the plasmid pcDNA3.1/human BDKRB2 by PCR amplification using the primers 5′-[…]-3′ and 5′-[…]-3′, and introduced into pCDH-CMV-MCS-EF1 vector using BamHI et XbaI restriction sites. Lentiviruses were produced from pCDH-BDKRB2 vector in HEK293T cells using the X-tremeGENE HP transfection reagent (Millipore-Sigma, Oakville, ON, Canada). Lentiviruses were harvested 48 h post-transfection and used to infect QBI HEK 293A cells (ATCC). Transduced cells were selected using 5 µg/mL of puromycin (Thermo Fisher, Burlington, On, Canada).
Radioligand displacement binding assays were performed as we previously described, with slight modifications. HEK293 cells stably expressing human B2R were used for these assays (see text above). […] Radioactivity of samples was measured by a β-scintillation counter (PerkinElmer, Woodbridge, On, Canada). Binding affinities of peptides were expressed in terms of IC50 values—the molar concentration of an unlabeled agonist causing 50% displacement of specific binding (GraphPad Prism 8.2).

human B2R [2] = target: T1, human B2R; experiment: IP-One accumulation assay, human B2R-HEK293 cells; format: cell-based; settings: IP1 accumulation, 30 min, room temperature, pH 7.4, 50 mM LiCl, human B2R-HEK293, 15,000 cells per well; mean of two independent experiments performed in duplicates; read-out: IP1 Assays (EC50; nM)
Description: The IP-One assay was performed on living, adherent human B2R-HEK293 cells according to the manufacturer’s recommendations (Cisbio, #62IPAPEB, Bedford, MA, USA). […] IP1-d2 and anti-IP1-Cryptate were added for at least 1 h. Fluorescence signal was measured using a Tecan M1000 plate reader (excitation at 320 nm and emission at 620 and 665 nm). EC50 values were calculated by curve-fitting using GraphPad Prism 8.2.

[3] = system: BBB, normal and focal-irradiated dog brains; settings: in vivo, iv; cited from earlier work
Source text: Radiation therapy is part of the standard treatment paradigm for CNS tumors. The short-term effects of prior radiotherapy on the BBB opening induced by Labradimil have been investigated in normal and focal-irradiated dog brains. […] In this study, we focused on late post-radiotherapy complications leading to radionecrosis (Figure 4), which c ...

[4] = system: angiotensin-converting enzyme (ACE, alias kininase II); settings: cited from earlier work
BBB / BTB = system: BBB / BTB; design: method as in 2 sources, one per row (each row's own in cited_ref): ref [2],[13] = [2]; PMID 15153840; doi:10.1177/107327480401100304; 2. Black K.L. Ningaraj N.S. Modulation of brain tumor capillaries for enhanced drug delivery selectively to brain tumor Cancer Control. 2004 11 165 173 10.1177/107327480401100304 15153840 || [13]; PMID 11286321; doi:10.2165/00003088-200140020-00003; 13. Emerich D.F. Dean R.L. Osborn C. Bartus R.T. The development of the bradykinin agonist labradimil as a means to increase the permeability of the blood-brain barrier: From concept to clinical evalu ||| ref [2],[46],[47] = [2]; PMID 15153840; doi:10.1177/107327480401100304; 2. Black K.L. Ningaraj N.S. Modulation of brain tumor capillaries for enhanced drug delivery selectively to brain tumor Cancer Control. 2004 11 165 173 10.1177/107327480401100304 15153840 || [46]; PMID 20146088; doi:10.1007/s11060-010-0124-x; 46. Liu L.B. Xue Y.X. Liu Y.H. Bradykinin increases the permeability of the blood-tumor barrier by the caveolae-mediated transcellular pathway J. Neurooncol. 2010 99 187 194 10.1007/s11060-010-0124-x || [47]; PMID 12023511; doi:10.1124/jpet.301.3.838; 47. Ningaraj N.S. Rao M. Hashizume K. Asotra K. Black K.L. Regulation of blood-brain tumor barrier permeability by calcium-activated potassium channels J. Pharmacol. Exp. Ther. 2002 301 838 851 10.112; settings: increased numbers of pinocytotic vesicles or caveolae; ref [2],[46],[47]; cited from earlier work
Source text: Kinin effects are mediated through specific activation of two types of receptors, namely, the kinin B1 (B1R) and B2 receptors (B2R), both belonging to the G-protein-coupled receptor family. […] The strategy exploiting targeted stimulation of the kinin receptors could perhaps ...

leucocytes, brain = settings: exogenous BK; ref [21],[24]; cited from earlier work

| Compound | IC50 (human B2R [1]; displacement of 1 nM [3H]BK, living adherent HEK293 cells stably expressing human B2R, serum-free DMEM, 1.5 h, 4 °C, mean of two independent experiments performed in duplicates) [nM] | EC50 (human B2R [2]) [nM] | vasogenic edema associated with focal radiation injury [3] | protection against enzymatic degradation by ACE [4] | binding affinity at human B2R, in words (human B2R [1]; HEK293 cells stably expressing human B2R) | BTB permeability by the transcellular pathway (BBB / BTB) | brain trafficking of IV-infused leucocytes (leucocytes, brain) |
| --- | --- | --- | --- | --- | --- | --- | --- |
| COc1ccc(C[C@@H](CN[C@@H](CCCNC(=N)N)C(=O)O)NC(=O)[C@@H]2CCCN2C(=O)[C@H](CO)NC(=O)[C@H](Cc2cccs2)NC(=O)CNC(=O)[C@@H]2C[C@@H](O)CN2C(=O)[C@@H]2CCCN2C(=O)[C@@H](N)CCCNC(=N)N)cc1 [Labradimil, [Hyp^3, Thi^5, (^4Me)Tyr^8(ΨCH2NH)Arg^9]-BK] (H-RP[Hyp]G[2Thi]SP-X1) | 17 | 47 | not exacerbating the vasogenic edema associated with focal radiation injury | fully protected against enzymatic degradation by the angiotensin-converting enzyme | – | – | – |
| RPPGFSPFR [BK, H-Arg^1-Pro^2-Pro^3-Gly^4-Phe^5-Ser^6-Pro^7-Phe^8-Arg^9-OH] | – | – | – | – | higher binding affinity (IC50) | may increase BTB permeability, as well by means of the transcellular pathway | can increase brain trafficking of IV-infused leucocytes |
